{"source": "paper PMC4168267", "about": "(Scientific Reports, 2014)", "origin": "cited, not measured here", "key": {"[1]": {"target": "Gαi1-GDP (Homo sapiens, UniProt P63096)", "sequence (P63096 whole entry)": "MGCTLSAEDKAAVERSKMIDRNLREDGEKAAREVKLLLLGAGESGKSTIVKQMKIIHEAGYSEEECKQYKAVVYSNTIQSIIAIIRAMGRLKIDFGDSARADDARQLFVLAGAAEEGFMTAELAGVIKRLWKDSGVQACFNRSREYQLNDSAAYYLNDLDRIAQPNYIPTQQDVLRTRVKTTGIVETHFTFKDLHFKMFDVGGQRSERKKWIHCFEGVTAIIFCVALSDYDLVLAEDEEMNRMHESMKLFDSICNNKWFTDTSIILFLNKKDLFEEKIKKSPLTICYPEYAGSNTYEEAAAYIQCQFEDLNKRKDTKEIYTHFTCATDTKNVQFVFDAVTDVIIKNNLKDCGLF", "settings": "R6A reference peptide of the competition assay"}, "[2]": {"tested_on": "chymotrypsin", "assay": "chymotrypsin"}}, "note": "pKd: −log10 of the molar value.", "data": [{"sequence": "MSQTKRLDDQLYWWEYL [Peptide R6A]", "values": [{"measurement": "pKd", "setting": "[1]", "result": 7.22}]}, {"sequence": "MITWYEFVAGTK", "values": [{"measurement": "cleaved bond", "setting": "[2]", "result": "Y5-E, major"}, {"measurement": "not cleaved", "setting": "[2]", "result": "intact"}]}]}
